Laboratory results: PubChem BioAssay (NCI)
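Each compound was tested at five concentrations against cells in 96-well plates for 48 hours. Abbreviation: GI50, concentration required for 50% inhibition of growth. TGI: concentration producing complete growth inhibition.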

Columns and labels:
Experiment in all cases: growth of human tumour cells (NCI), 48 h
NCI-H460 lung = tested on: NCI-H460 lung
A498 renal = tested on: A498 renal
HL-60(TB) leukemia = tested on: HL-60(TB) leukemia
SK-OV-3 ovarian = tested on: SK-OV-3 ovarian
SF-268 CNS = tested on: SF-268 CNS
SK-MEL-2 melanoma = tested on: SK-MEL-2 melanoma
HCC-2998 colon = tested on: HCC-2998 colon
SK-MEL-28 melanoma = tested on: SK-MEL-28 melanoma
LOX IMVI melanoma = tested on: LOX IMVI melanoma
NCI-H522 lung = tested on: NCI-H522 lung

SMILES	TGI (NCI-H460 lung) [µM]	TGI (A498 renal) [µM]	TGI (HL-60(TB) leukemia) [µM]	TGI (SK-OV-3 ovarian) [µM]	TGI (SF-268 CNS) [µM]	TGI (SK-MEL-2 melanoma) [µM]	TGI (HCC-2998 colon) [µM]	TGI (SK-MEL-28 melanoma) [µM]	TGI (LOX IMVI melanoma) [µM]	TGI (NCI-H522 lung) [µM]	GI50 (NCI-H460 lung) [µM]	GI50 (A498 renal) [µM]	GI50 (HL-60(TB) leukemia) [µM]	GI50 (SK-OV-3 ovarian) [µM]	GI50 (SF-268 CNS) [µM]	GI50 (SK-MEL-2 melanoma) [µM]	GI50 (HCC-2998 colon) [µM]	GI50 (SK-MEL-28 melanoma) [µM]	GI50 (LOX IMVI melanoma) [µM]	GI50 (NCI-H522 lung) [µM]
CCOc1ccccc1NC(=O)C(=O)c1c(O)c2ccc(O)cc2oc1=O	> 100	> 100	> 100	> 100	> 100	> 100	> 100	> 100	> 100	> 100										
COc1ccc(-c2cc3c(N)ncnc3o2)cc1	> 25	> 25	> 25	> 25	> 25	> 25	> 25	> 25	> 25	> 25	> 25	8.14	> 25	> 25	21.3	> 25	> 25	> 25	> 25	> 25
CSc1nc(-c2cccc(NC(=O)CCl)c2)c(C#N)c(=O)n1C	11.1	32.9	4.88	48.1		7.08	3.8	9.58	0.0342	3.21	3.16	5.51	1.81	12.5		2.17	1.96	2.85	0.0184	1.12
CC(=O)N1c2ccc(-c3ccc(C(=O)O)cc3)cc2[C@H](Nc2ccc(Cl)cc2)C[C@@H]1C	> 55.6	1.71	11.1	22.5	> 90.9	14.3	7.81	34.8	3.48	11.5	1.61	0.0667	0.0384	0.138	5.76	0.581	0.371	0.494	0.0628	0.0637
COc1ccc2c(c1)C(=O)c1c-2n(CCCNCCO)c(=O)c2cc([N+](=O)[O-])ccc12	0.0148	< 0.0482	0.122	1.69	0.378	2.3	0.557	1.5	0.0905	2.82	< 0.01	< 0.015	< 0.01	< 0.01	< 0.01	0.427	< 0.0232	0.0124	< 0.01	< 0.01
O=C(N/N=C/c1cccc(O)c1)c1ccc(C(F)(F)F)nc1Nc1cccc(C(F)(F)F)c1	4.52	5.65	3.45	6.02	6.13	6.07	3.42	10.1	3.17	6.72	1.74	1.59	1.56	1.77	1.04	1.76	1.02	1.89	1.17	1.67
